Measured values published in patent US9567300B2, “Hexahydropentaleno derivatives, preparation method and use in medicine thereof” (SUNSHINE LAKE PHARMA CO., LTD., priority 2012, dated 2017).

Columns and labels:
DPP-IV = biological target: T1, DPP-IV (Homo sapiens, UniProt P27487); test: Active inhibition DPP-IV assay (Gly-Pro-AMC substrate, fluorescence); assay type: biochemical; conditions: Gly-Pro-AMC 10 μM, 25 mM Tris pH 8.0
T1 construct: purchased R&D 1180-SE
Description: (§1) The following methods were used for testing the inhibitive action of the compound disclosed herein against DPP-IV, DPP-8 and DPP-9 enzymatic activity. The inhibitive ability of the compound disclosed herein against enzymatic activity of DPP-IV, DPP-8 and DPP-9 was tested. The measurements of the inhibition ratio or the 50% inhibiting concentration IC50 of every compound were based on a fixed quantity of enzyme-substrate mixtures and different concentrations of the test compounds.
DPP-IV enzyme was purchased from R&D, Catalog No. 1180-SE.
(§2) The test compound was dissolved in an appropriate amount of DMSO to prepare 100 mM mother liquor, which was divided into EP tubes and preserved at −20° C. The mother liquor was diluted with an assay buffer to prepare solutions with required concentrations. Sample solutions with different concentrations (4 μL) and certain concentration of DPP-IV (DPP-8 or DPP-9) solution (4 μL) were added into 384-well plates in turn. Referred to the instruction manual, Gly-Pro-AMC was selected as a substrate and the concentration thereof was 10 μM. The 16 mM mother liquor was prepared from the substrate and preserved at −20° C. for use. The 16 mM mother liquor was diluted with an assay buffer to a solution of known concentration. The assay buffer of DPP-IV was 25 mM Tris, and its pH was 8.0. The assay buffers of DPP-8 and DPP-9 were 50 mM Tris, and their pH was 7.5. The substrate mother liquor was diluted with an assay buffer, and the mixture (4 μL) was added into 384-well plates to prepare final solution concentration. The whole process was carried out in an ice bath. After the addition of the components of the assay system was completed, the system was centrifuged. The supernatant was then transferred to an Infinite F200 multifunctional microplate reader, and 20 fluorescence values were recorded every 30 sec. And then Slope (V0) was calculated directly by the software of microplate reader, fetching the data in the linear range. The measured reaction rate and the corresponding inhibition concentration were analyzed. Percent inhibition is I(%)=(V0−Vi)/V0×100%. Vi represents the initial reaction rate at different inhibition concentrations. V0 represents the initial reaction rate without inhibitor. Vi/V0 represents the inhibition level of inhibitor. Relevant curve chart was made with inhibition concentration as a horizontal coordinate and the value of Vi/V0 as a vertical coordinate. The IC50 values were calculated by Graph Pad Prism statistical analysis software.

DPP-8 = biological target: T2, DPP-8 (Homo sapiens, UniProt Q6V1X1); test: Active inhibition DPP-8 assay (Gly-Pro-AMC substrate, fluorescence); assay type: biochemical; conditions: Gly-Pro-AMC 10 μM, 50 mM Tris pH 7.5
T2 construct: purchased Biomol SE-827
Description: as §1
DPP-8 enzyme was purchased from Biomol, Catalog No. SE-827.
as §2

DPP-9 = biological target: T3, DPP-9 (Homo sapiens, UniProt Q86TI2); test: Active inhibition DPP-9 assay (Gly-Pro-AMC substrate, fluorescence); assay type: biochemical; conditions: Gly-Pro-AMC 10 μM, 50 mM Tris pH 7.5
T3 construct: purchased Bioscience 80090
Description: as §1
DPP-9 enzyme was purchased from Bioscience, Catalog No. 80090.
as §2

normal C57BL/6 mice = test: Effects of DPP-IV inhibitors on the blood glucose of normal C57BL/6 mice (oral glucose tolerance); assay type: in vivo; conditions: oral 5 mg/kg; for Nor-sugar rate % (5 mg/kg): male C57BL/6 mice, glucose 2.5 g/kg by gavage 30 min after administration; for hypoglycemic activities for C57BL/6 mice: conclusion in words
Description: The effects of the test compounds on the oral glucose tolerance of normal C57BL/6 mice were observed, and the hypoglycemic activities of these compounds in vivo were evaluated preliminarily.
Preparation procedure: Drugs were accurately weighed, and 5 mg of compounds of examples 3, 9 15, 16 and 17 were dissolved respectively in 20 mL of normal saline to obtain 0.25 mg/mL solutions.
Administrated Dose: The oral dose was 5 mg/kg and the gavage dose was 0.02 mL/g.
Test Method: The normal male C57BL/6 mice were grouped randomly into a blank control group, a positive control group, and treatment groups having 7 mice each group.
Administration and Serum Glucose Determination: C57BL/6 mice of each group were fasted for 18 hours before the experiment. The blood was drawn from the caudal vein of the mice and the glucose level was measured by using a blood-glucose meter. After detection, 0.25 mg/mL of positive control, 0.25 mg/mL of examples 3, 9, 15, 16 and 17 and normal saline were respectively administered to the positive control group, treatment groups and blank control group by intragastric administration. The blood glucose level (0 min) of positive control group was measured in 60 min after administration. The blood glucose levels (0 min) of the other groups were measured in 30 min after administration, and then glucose (2.5 g/kg) was administered to the mice through gavage. The blood was drawn from the caudal vein of the mice in 15 min, 30 min, 45 min, 60 min, 120 min after administration. The blood glucose levels of C57BL/6 mice were measured continuously by blood-glucose meter.
1. Glucose concentration-time curve was plotted, and AUC from 0 to 120 min and hypoglycemic rate of each dosage group at blood glucose peak were calculated.
2. Experimental data were represented in x±SD. The data were analyzed by SPSS 16.0 software. The data were compared between multiple groups using nonparametric Kruskal-Wallis H test method.

T3 sequence (Q86TI2 whole entry): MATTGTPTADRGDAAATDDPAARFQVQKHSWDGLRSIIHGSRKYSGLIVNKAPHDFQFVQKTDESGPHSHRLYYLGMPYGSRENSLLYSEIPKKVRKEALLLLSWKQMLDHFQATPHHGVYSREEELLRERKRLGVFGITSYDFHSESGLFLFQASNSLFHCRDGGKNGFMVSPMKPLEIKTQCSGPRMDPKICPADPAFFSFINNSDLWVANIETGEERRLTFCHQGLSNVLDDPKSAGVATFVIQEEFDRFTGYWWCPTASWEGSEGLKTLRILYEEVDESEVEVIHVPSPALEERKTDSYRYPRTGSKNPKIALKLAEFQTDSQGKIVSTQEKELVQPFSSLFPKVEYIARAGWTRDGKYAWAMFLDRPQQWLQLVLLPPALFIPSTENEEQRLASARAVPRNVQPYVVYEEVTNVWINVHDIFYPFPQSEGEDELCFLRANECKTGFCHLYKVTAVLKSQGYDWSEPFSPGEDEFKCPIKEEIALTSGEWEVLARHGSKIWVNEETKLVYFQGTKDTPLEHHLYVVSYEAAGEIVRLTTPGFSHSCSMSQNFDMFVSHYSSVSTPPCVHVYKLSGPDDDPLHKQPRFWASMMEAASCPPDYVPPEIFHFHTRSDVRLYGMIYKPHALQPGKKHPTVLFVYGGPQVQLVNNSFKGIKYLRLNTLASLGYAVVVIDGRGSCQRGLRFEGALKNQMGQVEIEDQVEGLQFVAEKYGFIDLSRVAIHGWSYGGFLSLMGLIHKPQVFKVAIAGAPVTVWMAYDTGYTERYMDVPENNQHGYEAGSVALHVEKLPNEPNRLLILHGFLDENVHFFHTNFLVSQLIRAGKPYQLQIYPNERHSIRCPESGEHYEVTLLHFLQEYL
T2 sequence (Q6V1X1 whole entry): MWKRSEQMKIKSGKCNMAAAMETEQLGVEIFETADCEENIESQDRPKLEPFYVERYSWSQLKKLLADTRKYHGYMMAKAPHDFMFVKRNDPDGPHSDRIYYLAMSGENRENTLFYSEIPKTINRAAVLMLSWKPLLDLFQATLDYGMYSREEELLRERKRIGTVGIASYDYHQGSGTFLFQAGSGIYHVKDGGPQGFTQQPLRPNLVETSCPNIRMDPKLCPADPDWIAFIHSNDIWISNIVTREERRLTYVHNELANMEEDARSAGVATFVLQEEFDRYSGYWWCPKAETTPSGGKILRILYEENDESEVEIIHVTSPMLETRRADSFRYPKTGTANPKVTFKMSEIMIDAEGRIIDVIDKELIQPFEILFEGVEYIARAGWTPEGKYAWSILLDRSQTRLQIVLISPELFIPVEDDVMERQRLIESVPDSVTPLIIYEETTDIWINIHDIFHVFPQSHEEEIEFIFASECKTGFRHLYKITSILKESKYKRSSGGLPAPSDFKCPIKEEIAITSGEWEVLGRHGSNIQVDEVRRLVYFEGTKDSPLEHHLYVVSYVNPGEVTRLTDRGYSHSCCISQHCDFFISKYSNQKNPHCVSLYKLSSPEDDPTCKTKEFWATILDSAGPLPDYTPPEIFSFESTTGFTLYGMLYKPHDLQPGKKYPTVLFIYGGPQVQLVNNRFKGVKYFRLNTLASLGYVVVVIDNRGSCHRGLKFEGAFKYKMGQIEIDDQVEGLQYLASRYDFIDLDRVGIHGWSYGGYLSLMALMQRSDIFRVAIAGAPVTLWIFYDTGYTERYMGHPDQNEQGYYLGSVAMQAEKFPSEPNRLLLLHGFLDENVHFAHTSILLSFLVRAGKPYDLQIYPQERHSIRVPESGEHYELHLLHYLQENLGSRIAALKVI
T1 sequence (P27487 whole entry): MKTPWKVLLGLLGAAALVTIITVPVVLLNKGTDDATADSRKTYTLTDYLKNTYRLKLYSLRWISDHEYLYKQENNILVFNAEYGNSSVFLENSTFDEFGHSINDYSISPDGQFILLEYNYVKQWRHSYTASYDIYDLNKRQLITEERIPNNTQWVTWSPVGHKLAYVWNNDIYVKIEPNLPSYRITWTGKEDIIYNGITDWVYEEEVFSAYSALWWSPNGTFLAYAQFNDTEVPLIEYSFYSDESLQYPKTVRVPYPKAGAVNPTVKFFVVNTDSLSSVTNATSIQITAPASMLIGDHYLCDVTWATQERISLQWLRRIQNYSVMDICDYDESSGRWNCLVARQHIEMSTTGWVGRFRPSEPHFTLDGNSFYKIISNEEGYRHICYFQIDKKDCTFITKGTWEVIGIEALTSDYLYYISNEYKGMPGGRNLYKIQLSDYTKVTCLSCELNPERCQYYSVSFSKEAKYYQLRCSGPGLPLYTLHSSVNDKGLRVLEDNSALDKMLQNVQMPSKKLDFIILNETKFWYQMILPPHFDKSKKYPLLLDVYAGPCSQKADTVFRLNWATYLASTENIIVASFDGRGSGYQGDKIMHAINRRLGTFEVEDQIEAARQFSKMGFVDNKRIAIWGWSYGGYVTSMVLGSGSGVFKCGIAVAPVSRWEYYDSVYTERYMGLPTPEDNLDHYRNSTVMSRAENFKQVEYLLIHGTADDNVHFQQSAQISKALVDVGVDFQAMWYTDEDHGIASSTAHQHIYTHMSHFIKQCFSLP

SMILES | IC50 (DPP-IV) | IC50 (DPP-8) | IC50 (DPP-9) | Nor-sugar rate % (5 mg/kg) (normal C57BL/6 mice) | hypoglycemic activities for C57BL/6 mice (normal C57BL/6 mice)
CO[C@@H]1C[C@@H]2C[C@@](C)(NCC(=O)N3CCC[C@H]3C#N)C[C@@H]2C1 [Example 1, (S)-1-(2-(((2r,3aR,5S,6aS)-5-methoxy-2-methyloctahydropentalen-2-yl)amino)acetyl)pyrrolidine-2-carbonitrile] | 11.3 nM | 50.5 µM | 4600 nM |  | 
CO[C@@H]1C[C@@H]2C[C@@](C)(NCC(=O)N3C[C@@H](F)C[C@H]3C#N)C[C@@H]2C1 [Example 2, (2S,4S)-4-fluoro-1-(2-(((2r,3aR,5S,6aS)-5-methoxy-2-methyloctahydropentalen-2-yl)amino)acetyl)pyrrolidine-2-carbonitrile] | 4.03 nM | 1.58 µM | 54 nM |  | 
C[C@@]1(NCC(=O)N2C[C@@H](F)C[C@H]2C#N)C[C@H]2C[C@@H](O)C[C@H]2C1 [Example 3, (2S,4S)-4-fluoro-1-(2-(((2r,3aR,5S,6aS)-5-hydroxy-2-methyloctahydropentalen-2-yl)amino)acetyl)pyrrolidine-2-carbonitrile] | 2.49 nM | 3.92 µM | 93 nM | 35.96% | 
CO[C@H]1C[C@@H]2C[C@@](C)(NCC(=O)N3C[C@@H](F)C[C@H]3C#N)C[C@@H]2C1 [Example 4, (2S,4S)-4-fluoro-1-(2-(((2r,3aR,5R,6aS)-5-methoxy-2-methyloctahydropentalen-2-yl)amino)acetyl)pyrrolidine-2-carbonitrile] | 2.5 nM | 0.9 µM | 12.4 nM |  | 
C[C@@]1(NCC(=O)N2CCC[C@H]2C#N)C[C@H]2C[C@@H](O)C[C@H]2C1 [Example 5, (S)-1-(2-(((2r,3aR,5S,6aS)-5-hydroxy-2-methyloctahydropentalen-2-yl)amino)acetyl)pyrrolidine-2-carbonitrile] | 27.4 nM |  | 4330 nM |  | 
CCO[C@@H]1C[C@@H]2C[C@@](C)(NCC(=O)N3CCC[C@H]3C#N)C[C@@H]2C1 [Example 6, (S)-1-(2-(((2r,3aR,5S,6aS)-5-ethoxy-2-methyloctahydropentalen-2-yl)amino)acetyl)pyrrolidine-2-carbonitrile] | 4.52 nM | 18.2 µM | 193 nM |  | 
CCO[C@@H]1C[C@@H]2C[C@@](C)(NCC(=O)N3C[C@@H](F)C[C@H]3C#N)C[C@@H]2C1 [Example 7, (2S,4S)-1-(2-(((2r,3aR,5S,6aS)-5-ethoxy-2-methyloctahydropentalen-2-yl)amino)acetyl)-4-fluoropyrrolidine-2-carbonitrile] | 4.29 nM | 2.67 µM | 27 nM |  | 
C[C@@]1(NCC(=O)N2C[C@@H](F)C[C@H]2C#N)C[C@H]2C[C@@H](OCC3CC3)C[C@H]2C1 [Example 8, (2S,4S)-1-(2-(((2r,3aR,5S,6aS)-5-(cyclopropylmethoxy)-2-methyloctahydropentalen-2-yl)amino)acetyl)-4-fluoropyrrolidine-2-carbonitrile] | 6.91 nM | 3.8 µM | 31 nM |  | 
C[C@@]1(NCC(=O)N2C[C@@H](F)C[C@H]2C#N)C[C@H]2C[C@H](O)C[C@H]2C1 [Example 9, (2S,4S)-4-fluoro-1-(2-(((2r,3aR,5R,6aS)-5-hydroxy-2-methyloctahydropentalen-2-yl)amino)acetyl)pyrrolidine-2-carbonitrile] | 4.01 nM | 2.85 µM | 29 nM | 18.7% | good hypoglycemic activities
CO[C@H]1C[C@@H]2C[C@@](C)(NCC(=O)N3CCC[C@H]3C#N)C[C@@H]2C1 [Example 10, (S)-1-(2-(((2r,3aR,5R,6aS)-5-methoxy-2-methyloctahydropentalen-2-yl)amino)acetyl)pyrrolidine-2-carbonitrile] | 2.43 nM | 5.98 µM | 62 nM |  | 
CO[C@@H]1C[C@@H]2CC(NCC(=O)N3C[C@@H](F)C[C@H]3C#N)C3(CC3)[C@@H]2C1 (stereo partly drawn) [Example 11, (2S,4S)-4-fluoro-1-(2-(((3a′S,5′R,6a′R)-5′-methoxyhexahydro-2′H-spiro[cyclopropane-1,1′-pentalen]-2′-yl)amino)acetyl)pyrrolidine-2-carbonitrile] | 105 nM | 14.2 µM | 916 nM |  | 
C[C@@]1(NCC(=O)N2C3C[C@H]3C[C@H]2C#N)C[C@H]2C[C@@H](O)C[C@H]2C1 (stereo partly drawn) [Example 12, (1S,3S,5S)-2-(2-(((2r,3aR,5S,6aS)-5-hydroxy-2-methyloctahydropentalen-2-yl)amino)acetyl)-2-azabicyclo[3.1.0]hexane-3-carbonitrile] | 171 nM |  |  |  | 
C[C@@]1(NCC(=O)N2C[C@@H](F)C[C@H]2C#N)C[C@H]2C[C@@H](OC3CC3)C[C@H]2C1 [Example 13, (2S,4S)-1-(2-(((2r,3aR,5S,6aS)-5-cyclopropoxy-2-methyloctahydropentalen-2-yl)amino)acetyl)-4-fluoropyrrolidine-2-carbonitrile] | 9.25 nM |  |  |  | 
C[C@@]1(NCC(=O)N2CCC[C@H]2C#N)C[C@H]2C[C@@H](OC3CC3)C[C@H]2C1 [Example 14, (S)-1-(2-(((2r,3aR,5S,6aS)-5-cyclopropoxy-2-methyloctahydropentalen-2-yl)amino)acetyl)pyrrolidine-2-carbonitrile] | 9.23 nM |  |  |  | 
C[C@@]1(NCC(=O)N2C[C@@H](F)C[C@H]2C#N)C[C@H]2CC(C#N)C[C@H]2C1 (stereo partly drawn) [Example 15, (2S,4S)-1-(2-(((2s,3aR,6aS)-5-cyano-2-methyloctahydropentalen-2-yl)amino)acetyl)-4-fluoropyrrolidine-2-carbonitrile] | 1.56 nM | 1.26 µM | 20 nM | 24.72% | good hypoglycemic activities
CC(=O)O[C@@H]1C[C@@H]2C[C@@](C)(NCC(=O)N3CCC[C@H]3C#N)C[C@@H]2C1 [Example 18, (2S,3aR,5r,6aS)-5-((2-((S)-2-cyanopyrrolidin-1-yl)-2-oxoethyl)amino)-5-methyloctahydropentalen-2-yl acetate] | 2.53 nM | 20.1 µM | 242 nM |  | 
C[C@@]1(NCC(=O)N2C[C@@H](F)C[C@H]2C#N)C[C@H]2CC3(CCO3)C[C@H]2C1 (stereo partly drawn) [Example 19, (2S,4S)-4-fluoro-1-(2-(((3a′R,5′r,6a′S)-5′-methylhexahydro-1′H-spiro[oxetane-2,2′-pentalen]-5′-yl)amino)acetyl)pyrrolidine-2-carbonitrile] | 25.8 nM |  |  |  | 
C#CC1C[C@@H]2C[C@@](C)(NCC(=O)N3C[C@@H](F)C[C@H]3C#N)C[C@@H]2C1 (stereo partly drawn) [Example 20, (2S,4S)-1-(2-(((2s,3aR,6aS)-5-ethynyl-2-methyloctahydropentalen-2-yl)amino)acetyl)-4-fluoropyrrolidine-2-carbonitrile] | 4.18 nM | 2.07 µM | 91 nM |  | 
